Measured values reported in PubChem BioAssay (NCI).
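These data come from cells grown in 96-well plates and exposed to compound for 48 hours at five concentrations. GI50 is the concentration that inhibits growth by half. TGI is the concentration that stops growth completely.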

What was measured:
Assay in all cases: NCI anticancer screen, dose series, 48 h
A549 NSCLC = tested on: A549 NSCLC
ACHN renal = tested on: ACHN renal
HOP-92 NSCLC = tested on: HOP-92 NSCLC
K-562 leukemia = tested on: K-562 leukemia
MOLT-4 leukemia = tested on: MOLT-4 leukemia
NCI/ADR-RES ovarian = tested on: NCI/ADR-RES ovarian
RPMI-8226 leukemia = tested on: RPMI-8226 leukemia
SK-MEL-2 melanoma = tested on: SK-MEL-2 melanoma
SK-MEL-5 melanoma = tested on: SK-MEL-5 melanoma
U251 CNS = tested on: U251 CNS

SMILES	GI50 (A549 NSCLC)	TGI (A549 NSCLC)	GI50 (ACHN renal)	TGI (ACHN renal)	GI50 (HOP-92 NSCLC)	TGI (HOP-92 NSCLC)	GI50 (K-562 leukemia)	TGI (K-562 leukemia)	GI50 (MOLT-4 leukemia)	TGI (MOLT-4 leukemia)	GI50 (NCI/ADR-RES ovarian)	TGI (NCI/ADR-RES ovarian)	GI50 (RPMI-8226 leukemia)	TGI (RPMI-8226 leukemia)	GI50 (SK-MEL-2 melanoma)	TGI (SK-MEL-2 melanoma)	GI50 (SK-MEL-5 melanoma)	TGI (SK-MEL-5 melanoma)	GI50 (U251 CNS)	TGI (U251 CNS)
CCc1cc2ncc(CN3CCN(c4ccc(C(=O)NC)nc4)CC3)cc2[nH]c1=O	> 100 µM	> 100 µM	78.3 µM	> 100 µM	12.3 µM	> 100 µM	50 µM	> 100 µM	46 µM	> 100 µM	> 100 µM	> 100 µM	40.4 µM	> 100 µM	> 100 µM	> 100 µM	30.4 µM	> 100 µM	> 100 µM	> 100 µM
COc1c(-c2ccc(O)c(O)c2)oc2c(O)c(O)cc(O)c2c1=O	–	> 100 µM	–	> 100 µM	–	> 100 µM	–	46.4 µM	–	73.8 µM	–	> 100 µM	–	> 100 µM	–	> 100 µM	–	> 100 µM	–	> 100 µM
CCN(CC)CCN(Cc1ccc(F)cc1)c1ccc(CO)c(Cl)c1	2.42 µM	12.8 µM	38.2 µM	> 100 µM	2.66 µM	19.3 µM	10.2 µM	41.5 µM	40.1 µM	> 100 µM	9.64 µM	50.2 µM	23.8 µM	75.3 µM	21.2 µM	44.4 µM	16.3 µM	30.1 µM	22.8 µM	> 100 µM
C=C(CC(=O)O)C(=O)O (tested in a mixture with another compound)	> 50 µg/mL	> 50 µg/mL	> 50 µg/mL	> 50 µg/mL	> 50 µg/mL	> 50 µg/mL	> 50 µg/mL	> 50 µg/mL	> 50 µg/mL	> 50 µg/mL	> 50 µg/mL	> 50 µg/mL	> 50 µg/mL	> 50 µg/mL	> 50 µg/mL	> 50 µg/mL	> 50 µg/mL	> 50 µg/mL	> 50 µg/mL	> 50 µg/mL
Cc1ccc(C(SCC(N)C(=O)O)(c2ccccc2)c2ccccc2)cc1 (stereo not drawn)	0.153 µM	> 100 µM	2.67 µM	> 100 µM	0.288 µM	73.1 µM	0.0485 µM	> 100 µM	0.244 µM	> 100 µM	1.03 µM	6.03 µM	0.0385 µM	> 100 µM	2.75 µM	98 µM	0.0452 µM	19.6 µM	0.042 µM	> 40.1 µM
C/C=C/[C@H]1O[C@@H]2C(=C[C@H]1O)C(=O)O[C@H]2C	19 µM	42.3 µM	7.71 µM	22.9 µM	1.55 µM	22.1 µM	7.55 µM	> 33.8 µM	2.77 µM	10.5 µM	26 µM	> 57 µM	2.74 µM	8.85 µM	37.8 µM	> 100 µM	9.89 µM	23.3 µM	18.4 µM	36.8 µM
CCOC(=O)c1c(C)nc2c(c1N)CC(=O)N2CCc1ccccc1	4.19 µM	36.9 µM	0.595 µM	6.48 µM	0.496 µM	18.7 µM	0.424 µM	> 100 µM	0.822 µM	21.4 µM	2.05 µM	27.2 µM	0.345 µM	5.6 µM	0.53 µM	6.8 µM	0.939 µM	13.6 µM	0.997 µM	18.4 µM
C/C(=N\NC(=S)N1CC2CCC(CC2)C1)c1cccc(C)n1	0.248 µM	12.9 µM	–	5.33 µM	–	16.4 µM	< 0.0001 µM	–	< 0.0001 µM	0.00764 µM	< 0.0001 µM	–	0.16 µM	17.1 µM	–	21.4 µM	0.287 µM	13.7 µM	0.408 µM	11.8 µM
COC1C(OC(=O)/C=C/C=C/C=C/C=C\C(=O)O)CCC2(CO2)C1C1(C)OC1CC=C(C)C (stereo not drawn)	–	–	> 200 µM	> 200 µM	> 200 µM	> 200 µM	> 200 µM	> 200 µM	> 200 µM	> 200 µM	> 200 µM	> 200 µM	> 200 µM	> 200 µM	> 200 µM	> 200 µM	> 200 µM	> 200 µM	> 200 µM	> 200 µM
Cn1c2ccccc2c2c3[nH][nH]c(=O)c3c3c4ccccc4[nH]c3c21	3.22 µM	16.8 µM	2.6 µM	> 100 µM	3.73 µM	8.98 µM	3.3 µM	15.9 µM	1.89 µM	5.55 µM	4.02 µM	37.5 µM	2.96 µM	9.2 µM	1.77 µM	5.78 µM	1.37 µM	5.04 µM	2.09 µM	21.1 µM
CCCCN(CCCC)CCC(O)c1cc2c(Cl)cc(Cl)cc2c2cc(C(F)(F)F)ccc12 (stereo not drawn)	–	–	–	25.6 µM	–	10.6 µM	–	22.4 µM	–	29.3 µM	–	26.1 µM	–	28.4 µM	–	30.2 µM	–	–	–	31.7 µM
c1cncc(C2Nc3cccc4cccc(c34)N2)c1	38.8 µM	> 100 µM	17.3 µM	34.5 µM	22.3 µM	61.2 µM	28.8 µM	> 100 µM	42.5 µM	> 100 µM	33.8 µM	> 100 µM	33.9 µM	> 100 µM	30.9 µM	64.4 µM	66.3 µM	> 100 µM	21.9 µM	54 µM
CCOC(=O)c1oc2ccc([N+](=O)[O-])c3c2c1CCC3	–	> 100 µM	–	> 100 µM	–	71 µM	–	> 100 µM	–	> 100 µM	–	> 100 µM	–	> 100 µM	–	> 100 µM	–	> 100 µM	–	59.2 µM
CC(/C=C/c1ccccc1)=N\NC(N)=S	–	> 100 µM	–	> 100 µM	–	> 100 µM	–	–	–	> 100 µM	–	84 µM	–	93.5 µM	–	–	–	> 100 µM	–	> 100 µM
Cc1ccn2c(CCc3nnc4cc(C)ccn34)nnc2c1	–	> 100 µM	–	> 100 µM	–	> 100 µM	–	–	–	> 100 µM	–	> 100 µM	–	> 100 µM	–	> 100 µM	–	> 100 µM	–	> 100 µM
